The record followed here is patent US6849578B1, “Selective herbicides based on 2,6-disubstituted pyridine derivatives” (Bayer Aktiengesellschaft, priority 1999, dated 2005).

Format in all cases: in vivo
Assay [1] has as its system Echinochloa. The assay is described as follows: Post-emergence greenhouse test, % damage. Particulars: Table A-3, after about 3 weeks. From the text:
(§1) The expected activity for a given combination of two herbicides can be calculated as follows (cf. COLBY, S. R.: “Calculating synergistic and antagonistic responses of herbicide combinations”, Weeds 15, pages 20-22, 1967): • If X=% damage by herbicide A (active compound of the formula (I) at an application rate of p kg/ha • and Y=% damage by herbicide B (active compound of the formula II) at an application rate of q kg/ha • and E=the expected damage of the herbicides A and B at application rates of p and q kg/ha, • then E=X+Y−(X*Y/100).
(§2) Customary formulations of the active compounds in question were used. Propoxycarbazone-sodium was used as 70 WG, flufenacet as 60 WG and picolinafen as 75 WG formulation. From the active compounds, an aqueous spray liquor containing 0.1% of the additive Renex-36 was prepared.
(§3) Test plants are grown in a greenhouse under controlled conditions (temperature and light conditions). When the plants have reached a height of 5 to 15 cm, they are sprayed with the test solution. The concentration of the spray liquor is chosen such that the particular amounts of active compound desired are applied in 500 l of water/ha.
(§4) After the spray treatment, the plant containers are stored in a greenhouse at constant light and temperature conditions.
(§5) After about 3 weeks, the degree of damage to the crop plants is rated in % damage in comparison to the development of the untreated control.
(§6) The figures denote: • 0%=no damage (like untreated control) • 100%=total destruction/damage

Assay [2] concerns Avenua. As to the kind of experiment: Post-emergence greenhouse test, % damage. Particulars: after about 3 weeks.
Source text: as §1, §2, §3, §4, §5, §6

For assay [3], the system named is Digitaria. The assay is described as follows: Post-emergence greenhouse test, % damage. The note with it: Table A-2, after about 3 weeks.
Source text: as §1, §2, §3, §4, §5, §6

For assay [4], the system named is Ipomoea. As to the kind of experiment: Post-emergence greenhouse test, % damage. The note with it: Table A-5, after about 3 weeks.
Source text: as §1, §2, §3, §4, §5, §6

In assay [5] the test system is Cassia. As to the kind of experiment: Post-emergence greenhouse test, % damage. The note with it: Table A-4, after about 3 weeks.
Source text: as §1, §2, §3, §4, §5, §6

Assay [6] concerns Viola. The assay is described as follows: Post-emergence greenhouse test, % damage. Particulars: Table A-6, after about 3 weeks.
Source text: as §1, §2, §3, §4, §5, §6

Assay [7] deals with Stellaria. As to the kind of experiment: Outdoor trials in cereal, post-emergence spring, herbicidal activity. Particulars: about 8-10 weeks after application.
Source text: as §1
(§7) To examine a possible synergism, the compounds picolinafen and propoxycarbazone-sodium were tested under outdoor conditions in cereal against economically important weed grasses. The small-plot experiments were conducted on areas used for agricultural cultivation.
(§8) The active compounds were applied in spring by the post-emergence method and over the entire area, using spray application with a medium droplet size. To prepare an advantageous preparation of active compound, the active compounds were formulated as 70 WG (70% w/w water-dispersible powder) or 75 WG (75% w/w water-dispersible powder) and suspended in water. The spray liquor was then applied in a water application rate customarily used in practice.
(§9) About 8-10 weeks after the application of the spray liquor, the herbicidal activity was scored visually. The figures denote: • 0%=no herbicidal effect, • 100%=total destruction of the crop or the weeds.

The test system of assay [8] is Matricaria ch. The description is as above. Particulars: about 8-10 weeks after application.
Source text: as §1, §7, §8, §9

Assay [9] deals with Lactuca. The assay is described as above. The note with it: about 8-10 weeks after application.
Source text: as §1, §7, §8, §9

Assay [10] relates to Galium. The assay is described as above. The note with it: about 8-10 weeks after application.
Source text: as §1, §7, §8, §9

Assay [11] concerns Legousia. The assay is described as above. Particulars: about 8-10 weeks after application.
Source text: as §1, §7, §8, §9

Assay [12] deals with Matricaria in. Described as above. The note with it: about 8-10 weeks after application.
Source text: as §1, §7, §8, §9

`CC(C)N(C(=O)COc1nnc(C(F)(F)F)s1)c1ccc(F)cc1` [flufenacet, N-isopropyl-N-(4-fluorophenyl)-(5-trifluoromethyl-1,3,4-thiadiazol-2-yl-oxy)-acetamide]: the Echinochloa observed in [1] (60 g of ai/ha) was 60%. For the same compound, the Avenua observed in assay [2] (30 g of ai/ha, Table A-1) is listed as 10%; in assay [2] (60 g of ai/ha, Table A-1), 10%. The Digitaria observed in assay [3] (60 g of ai/ha) is given as 0%; in [3] (125 g of ai/ha), 10%. The Ipomoea observed in assay [4] (60 g of ai/ha) and in assay [4] (125 g of ai/ha) was 30% each time. In assay [5] (125 g of ai/ha), the Cassia observed came to 0%. The Viola observed in assay [6] (60 g of ai/ha) is 0%.
For the compound `O=C(Nc1ccc(F)cc1)c1cccc(Oc2cccc(C(F)(F)F)c2)n1` [picolinafen, N-(4-fluorophenyl)-6-[3-(trifluoromethyl)phenoxy]-2-pyridinecarboxamide], in assay [1] (8 g of ai/ha), the Echinochloa observed was 10%. Also, the Avenua observed came to 0% in [2] (8 g of ai/ha, Table A-1); 10% in assay [2] (15 g of ai/ha, Table A-7); 0% in assay [2] (15 g of ai/ha, Table A-8); 70% in [2] (15 g of ai/ha, Table A-9); 20% in assay [2] (30 g of ai/ha, Table A-1); 20% in assay [2] (30 g of ai/ha, Table A-7). The Avenua observed in assay [2] (30 g of ai/ha, Table A-8) was found to be 20%; in assay [2] (30 g of ai/ha, Table A-9), 70%. Besides, the Digitaria observed in assay [3] (30 g of ai/ha) was 50%. The Ipomoea observed in assay [4] (8 g of ai/ha), in assay [4] (15 g of ai/ha) and in assay [4] (30 g of ai/ha) was 70% throughout. Besides, the Cassia observed in assay [5] (30 g of ai/ha) came out at 40%. In addition, the Viola observed in [6] (8 g of ai/ha) is 90%. Moreover, the Stellaria observed in assay [7] (75 g of ai/ha) came to 20%. Besides, the “Matricaria ch. observed 1st location” value in [8] (75 g of ai/ha) is given as 0%. Besides, the “Matricaria ch. observed 2nd location” value in assay [8] (75 g of ai/ha) was determined as 0%. The Lactuca observed in [9] (75 g of ai/ha) stood at 0%. Further, in assay [10] (75 g of ai/ha), the Galium observed came out at 30%. Besides, in assay [11] (75 g of ai/ha), the Legousia observed is recorded as 0%. Also, the Matricaria in. observed in [12] (75 g of ai/ha) is given as 45%.
As to `CCCOc1nn(C(=O)NS(=O)(=O)c2ccccc2C(=O)OC)c(=O)n1C.[Na]` [propoxycarbazone-sodium, methyl 2-[[[(4,5-dihydro-4-methyl-5-oxo-3-propoxy-1H-1,2,4-triazol-1-yl)carbonyl]-amino]-sulphonyl]-benzoate sodium salt], the Avenua observed in [2] (15 g of ai/ha, Table A-7) came to 50%; in [2] (15 g of ai/ha, Table A-8), 0%; in assay [2] (15 g of ai/ha, Table A-9), 0%; in [2] (30 g of ai/ha, Table A-7) it was 50%; in assay [2] (30 g of ai/ha, Table A-8), 20%; in [2] (30 g of ai/ha, Table A-9), 0%. Moreover, the Avenua observed in assay [2] (60 g of ai/ha, Table A-7) was determined as 60%; in assay [2] (60 g of ai/ha, Table A-9) it was 0%. In addition, the Stellaria observed in assay [7] (42 g of ai/ha) was 30%. Further, the “Matricaria ch. observed 1st location” value in assay [8] (42 g of ai/ha) is on record as 60%. Also, in assay [8] (42 g of ai/ha), the “Matricaria ch. observed 2nd location” value turned out to be 10%. In addition, in assay [9] (42 g of ai/ha), the Lactuca observed came to 10%. Besides, in assay [10] (42 g of ai/ha), the Galium observed turned out to be 0%. In [11] (42 g of ai/ha), the Legousia observed is listed as 0%. Besides, the Matricaria in. observed in [12] (42 g of ai/ha) is given as 75%.
